# Results from article PMC5218480 (PLoS ONE, 2017).
# System: MV-4-11 cells
# Experiment: Gene expression microarray analysis (Affymetrix PrimeView) and GSEA
# Type: cell-based, human
# Design: RFU PODN (11730768_x_at) / Fold change /veh PODN (11730768_x_at) / RFU LINC00158 (11744669_a_at) / Fold change /veh LINC00158 (11744669_a_at) / RFU DUSP10 (11751237_a_at) / Fold change /veh DUSP10 (11751237_a_at) / RFU ID3 (11757404_x_at) / Fold change /veh ID3 (11757404_x_at) / RFU PLEKHG5 (11737974_s_at) / Fold change /veh PLEKHG5 (11737974_s_at) / RFU LRRC4B (11730491_at) / Fold change /veh LRRC4B (11730491_at) / RFU GIMAP4 (11747438_a_at) / Fold change /veh GIMAP4 (11747438_a_at) / RFU KRT8 (11758183_x_at) / Fold change /veh KRT8 (11758183_x_at) / RFU CNN1 (11734310_a_at) / Fold change /veh CNN1 (11734310_a_at) / RFU VPS37D (11726825_at) / Fold change /veh VPS37D (11726825_at) / RFU C10orf10 (11716522_x_at) / Fold change /veh C10orf10 (11716522_x_at) / RFU KIR2DL2 /// KIR2DL4 /// KIR2DL5A /// KIR2DL5B /// KIR2DS1 /// KIR2DS2 /// KIR2DS3 /// KIR2DS4 /// KIR3DL3 /// KIR3DL3 /// KIR3DS1 (11738374_at) / Fold change /veh KIR2DL2 /// KIR2DL4 /// KIR2DL5A /// KIR2DL5B /// KIR2DS1 /// KIR2DS2 /// KIR2DS3 /// KIR2DS4 /// KIR3DL3 /// KIR3DL3 /// KIR3DS1 (11738374_at) / RFU C1QL1 (11718748_at) / Fold change /veh C1QL1 (11718748_at) / RFU TMPRSS4 (11747572_a_at) / Fold change /veh TMPRSS4 (11747572_a_at) / RFU HAMP (11756126_x_at) / Fold change /veh HAMP (11756126_x_at) / RFU RNFT2 (11725882_a_at) / Fold change /veh RNFT2 (11725882_a_at) / RFU NR4A2 (11747474_a_at) / Fold change /veh NR4A2 (11747474_a_at) / RFU ABCC12 (11746883_a_at) / Fold change /veh ABCC12 (11746883_a_at) / RFU TMEM136 (11760407_x_at) / Fold change /veh TMEM136 (11760407_x_at) / RFU CLDN22 /// WWC2 (11732394_at) / Fold change /veh CLDN22 /// WWC2 (11732394_at) / RFU HLA-DPB1 (11760878_x_at) / Fold change /veh HLA-DPB1 (11760878_x_at) / RFU SPINT1 (11716480_a_at) / Fold change /veh SPINT1 (11716480_a_at) / RFU GAP43 (11754022_s_at) / Fold change /veh GAP43 (11754022_s_at) / RFU A4GNT (11735810_at) / Fold change /veh A4GNT (11735810_at) / RFU PRB3 (11715151_x_at) / Fold change /veh PRB3 (11715151_x_at) / RFU TUBB4B (11761932_at) / Fold change /veh TUBB4B (11761932_at) / RFU CAPN14 (11732068_a_at) / Fold change /veh CAPN14 (11732068_a_at) / RFU TMCC2 (11721928_a_at) / Fold change /veh TMCC2 (11721928_a_at) / RFU IRGQ (11745062_a_at) / Fold change /veh IRGQ (11745062_a_at) / RFU FAM174B (11720279_a_at) / Fold change /veh FAM174B (11720279_a_at) / RFU TMPRSS4 (11748680_a_at) / Fold change /veh TMPRSS4 (11748680_a_at) / RFU FAM212B (11763350_a_at) / Fold change /veh FAM212B (11763350_a_at) / RFU PLEKHG5 (11743358_a_at) / Fold change /veh PLEKHG5 (11743358_a_at) / RFU ZSCAN30 (11745921_a_at) / Fold change /veh ZSCAN30 (11745921_a_at) / RFU CMKLR1 (11741424_a_at) / Fold change /veh CMKLR1 (11741424_a_at) / RFU LOC101060620 /// MAPK8IP1 (11723275_at) / Fold change /veh LOC101060620 /// MAPK8IP1 (11723275_at) / RFU SPTSSB (11747773_x_at) / Fold change /veh SPTSSB (11747773_x_at) / RFU PRSS12 (11739890_at) / Fold change /veh PRSS12 (11739890_at) / RFU BIN1 (11741810_x_at) / Fold change /veh BIN1 (11741810_x_at) / RFU WNT11 (11732464_a_at) / Fold change /veh WNT11 (11732464_a_at) / RFU C10orf10 (11716521_a_at) / Fold change /veh C10orf10 (11716521_a_at) / RFU C5orf56 (11738089_at) / Fold change /veh C5orf56 (11738089_at) / RFU CYB561 (11721691_x_at) / Fold change /veh CYB561 (11721691_x_at) / RFU ANKRD19P (11752326_a_at) / Fold change /veh ANKRD19P (11752326_a_at) / RFU OR2T12 /// OR2T33 /// OR2T8 (11738714_s_at) / Fold change /veh OR2T12 /// OR2T33 /// OR2T8 (11738714_s_at) / RFU VCAN (11748164_a_at) / Fold change /veh VCAN (11748164_a_at) / RFU JSRP1 (11732532_at) / Fold change /veh JSRP1 (11732532_at) / RFU KRTAP10-11 (11738290_x_at) / Fold change /veh KRTAP10-11 (11738290_x_at) / RFU MYO3A (11730013_a_at) / Fold change /veh MYO3A (11730013_a_at) / RFU EBF3 (11725865_a_at) / Fold change /veh EBF3 (11725865_a_at) / RFU CAMK2N1 (11719241_x_at) / Fold change /veh CAMK2N1 (11719241_x_at) / RFU C5orf56 (11738088_a_at) / Fold change /veh C5orf56 (11738088_a_at) / RFU OLFML3 (11715873_a_at) / Fold change /veh OLFML3 (11715873_a_at) / RFU LOC100653217 /// NTM (11731650_a_at) / Fold change /veh LOC100653217 /// NTM (11731650_a_at) / RFU MAPK11 (11762145_a_at) / Fold change /veh MAPK11 (11762145_a_at) / RFU FIZ1 (11724087_x_at) / Fold change /veh FIZ1 (11724087_x_at) / RFU OASL (11726364_x_at) / Fold change /veh OASL (11726364_x_at) / RFU SOX15 (11748057_x_at) / Fold change /veh SOX15 (11748057_x_at) / RFU CD79A (11719716_a_at) / Fold change /veh CD79A (11719716_a_at) / RFU HIST1H1D (11736915_at) / Fold change /veh HIST1H1D (11736915_at) / RFU CASKIN2 (11723855_a_at) / Fold change /veh CASKIN2 (11723855_a_at) / RFU LOC730098 (11760151_x_at) / Fold change /veh LOC730098 (11760151_x_at) / RFU OR4N2 (11742367_at) / Fold change /veh OR4N2 (11742367_at) / RFU PRRT2 (11749266_a_at) / Fold change /veh PRRT2 (11749266_a_at) / RFU SNX32 (11753110_a_at) / Fold change /veh SNX32 (11753110_a_at) / RFU CDHR5 (11726645_a_at) / Fold change /veh CDHR5 (11726645_a_at) / RFU RCAN1 (11760418_a_at) / Fold change /veh RCAN1 (11760418_a_at) / RFU FAM167A (11723789_a_at) / Fold change /veh FAM167A (11723789_a_at) / RFU FAM26E (11764081_at) / Fold change /veh FAM26E (11764081_at) / RFU ISYNA1 (11749810_s_at) / Fold change /veh ISYNA1 (11749810_s_at) / RFU ACY1 (11761880_at) / Fold change /veh ACY1 (11761880_at) / RFU 11764098_at / Fold change /veh 11764098_at / RFU SAMD14 (11745864_x_at) / Fold change /veh SAMD14 (11745864_x_at) / RFU NPB (11741838_a_at) / Fold change /veh NPB (11741838_a_at) / RFU TMPRSS6 (11731388_a_at) / Fold change /veh TMPRSS6 (11731388_a_at) / RFU KRTAP10-2 (11738614_at) / Fold change /veh KRTAP10-2 (11738614_at) / RFU ARHGAP8 /// PRR5-ARHGAP8 (11727945_x_at) / Fold change /veh ARHGAP8 /// PRR5-ARHGAP8 (11727945_x_at) / RFU KRTAP5-7 /// NADSYN1 (11734609_at) / Fold change /veh KRTAP5-7 /// NADSYN1 (11734609_at) / RFU RASL12 (11751679_a_at) / Fold change /veh RASL12 (11751679_a_at) / RFU CDKN2B (11736163_a_at) / Fold change /veh CDKN2B (11736163_a_at) / RFU PRF1 (11729649_at) / Fold change /veh PRF1 (11729649_at) / RFU, ZNF638 /// ZNF638-IT1 / Fold change vs veh, ZNF638 /// ZNF638-IT1 / RFU, PANK3 / Fold change vs veh, PANK3 / RFU, SH3YL1 / Fold change vs veh, SH3YL1 / RFU, ZEB2 / Fold change vs veh, ZEB2 / RFU, NRIP1 / Fold change vs veh, NRIP1 / RFU, PTTG1IP / Fold change vs veh, PTTG1IP / RFU, CAPN2 / Fold change vs veh, CAPN2 / RFU, MED14 / Fold change vs veh, MED14 / RFU, SNORA58 / Fold change vs veh, SNORA58 / RFU, C1orf63 / Fold change vs veh, C1orf63 / RFU, LRRFIP1 / Fold change vs veh, LRRFIP1 / RFU, NDUFAF7 / Fold change vs veh, NDUFAF7 / RFU, SLC12A2 / Fold change vs veh, SLC12A2 / RFU, IBTK / Fold change vs veh, IBTK / RFU, ESF1 / Fold change vs veh, ESF1 / Fold change vs veh, TMEM50B / RFU, TAOK1 / Fold change vs veh, TAOK1 / RFU, ACBD3 / Fold change vs veh, ACBD3 / RFU, TMA16 / Fold change vs veh, TMA16 / RFU, RWDD3 / Fold change vs veh, RWDD3 / RFU, BCAT1 / Fold change vs veh, BCAT1 / RFU, EDEM3 / Fold change vs veh, EDEM3 / RFU, TMEM33 / Fold change vs veh, TMEM33 / RFU, WDR75 / Fold change vs veh, WDR75 / RFU, AHCTF1 / Fold change vs veh, AHCTF1 / RFU, TFRC / Fold change vs veh, TFRC / RFU, ZDHHC17 / Fold change vs veh, ZDHHC17 / RFU, NOM1 / Fold change vs veh, NOM1 / RFU, ARL8B / Fold change vs veh, ARL8B / RFU, ZBTB11 / Fold change vs veh, ZBTB11 / RFU, TAMM41 / Fold change vs veh, TAMM41 / RFU, KIAA1704 /// LOC100996395 / Fold change vs veh, KIAA1704 /// LOC100996395 / RFU, ING1 / Fold change vs veh, ING1 / RFU, TRMT61B / Fold change vs veh, TRMT61B / RFU, FUBP3 / Fold change vs veh, FUBP3 / RFU, TP53 / Fold change vs veh, TP53 / RFU, TNKS2 / Fold change vs veh, TNKS2 / RFU, ZFP14 / Fold change vs veh, ZFP14 / RFU, ACTR2 / Fold change vs veh, ACTR2 / RFU, PPP3R1 / Fold change vs veh, PPP3R1 / RFU, PIK3R1 / Fold change vs veh, PIK3R1 / RFU, HNRNPA1 / Fold change vs veh, HNRNPA1 / RFU, RNF170 / Fold change vs veh, RNF170 / RFU, ZNF28 / Fold change vs veh, ZNF28 / RFU, RNGTT / Fold change vs veh, RNGTT / RFU, OGT / Fold change vs veh, OGT / RFU, BRD1 / Fold change vs veh, BRD1 / RFU, MARS / Fold change vs veh, MARS / RFU, ZNF655 / Fold change vs veh, ZNF655 / RFU, FAHD1 / Fold change vs veh, FAHD1 / RFU, BDP1 / Fold change vs veh, BDP1 / RFU, LRRCC1 / Fold change vs veh, LRRCC1 / RFU, ARID1A / Fold change vs veh, ARID1A / RFU, ZNF146 / Fold change vs veh, ZNF146 / RFU, ZNF330 / Fold change vs veh, ZNF330 / RFU, GPN3 / Fold change vs veh, GPN3 / RFU, C9orf123 / Fold change vs veh, C9orf123 / RFU, N4BP2L2 / Fold change vs veh, N4BP2L2 / RFU, ARFIP1 / Fold change vs veh, ARFIP1 / RFU, FAM179B / Fold change vs veh, FAM179B / RFU, BCL10 / Fold change vs veh, BCL10 / RFU, UHRF1BP1L / Fold change vs veh, UHRF1BP1L / RFU, BET1 / Fold change vs veh, BET1 / RFU, CNOT2 / Fold change vs veh, CNOT2 / RFU, ZNF268 / Fold change vs veh, ZNF268 / Fold change vs veh, ZNF507 / RFU, DGCR2 / Fold change vs veh, DGCR2 / RFU, WDSUB1 / Fold change vs veh, WDSUB1 / Fold change vs veh, HSP90B1 /// MIR3652 / RFU, ADSS / Fold change vs veh, ADSS / RFU, GK / Fold change vs veh, GK / RFU, ZNF148 / Fold change vs veh, ZNF148 / RFU, TAF9 / Fold change vs veh, TAF9 / RFU, SLC1A5 / Fold change vs veh, SLC1A5 / RFU, SLMO2 / Fold change vs veh, SLMO2 / RFU, ABCC4 / Fold change vs veh, ABCC4 / RFU, LOC101060439 /// RAP1B / Fold change vs veh, LOC101060439 /// RAP1B / RFU, RFX7 / Fold change vs veh, RFX7 / RFU, GTPBP10 / Fold change vs veh, GTPBP10 / RFU, CNEP1R1 / Fold change vs veh, CNEP1R1 / RFU, BIVM-ERCC5 /// ERCC5 / Fold change vs veh, BIVM-ERCC5 /// ERCC5 / RFU, ILF3 / Fold change vs veh, ILF3 / RFU 11762660_at / Fold change /veh 11762660_at / RFU VCAN (11757783_s_at) / Fold change /veh VCAN (11757783_s_at) / RFU DDX43 (11728927_at) / Fold change /veh DDX43 (11728927_at) / RFU KRT8 (11758188_x_at) / Fold change /veh KRT8 (11758188_x_at) / RFU NKD1 (11759106_at) / Fold change /veh NKD1 (11759106_at) / RFU SRD5A1 (11742802_a_at) / Fold change /veh SRD5A1 (11742802_a_at) / RFU TPSAB1 /// TPSB2 (11721975_s_at) / Fold change /veh TPSAB1 /// TPSB2 (11721975_s_at) / RFU GSTM3 (11746129_a_at) / Fold change /veh GSTM3 (11746129_a_at) / RFU IL23R (11737362_x_at) / Fold change /veh IL23R (11737362_x_at) / RFU TMEM51 (11727254_a_at) / Fold change /veh TMEM51 (11727254_a_at) / RFU PIWIL2 (11732686_x_at) / Fold change /veh PIWIL2 (11732686_x_at) / RFU ORM1 (11744905_x_at) / Fold change /veh ORM1 (11744905_x_at) / RFU CCDC152 (11743942_at) / Fold change /veh CCDC152 (11743942_at) / RFU ECM1 (11717891_a_at) / Fold change /veh ECM1 (11717891_a_at) / RFU IL23R (11748794_a_at) / Fold change /veh IL23R (11748794_a_at) / RFU TNFAIP8L3 (11732012_x_at) / Fold change /veh TNFAIP8L3 (11732012_x_at) / RFU MBOAT4 (11741988_at) / Fold change /veh MBOAT4 (11741988_at) / RFU 11764193_at / Fold change /veh 11764193_at / RFU TMEM53 (11763286_at) / Fold change /veh TMEM53 (11763286_at) / RFU MAGEB2 (11727129_at) / Fold change /veh MAGEB2 (11727129_at) / RFU TMEM200A (11744735_a_at) / Fold change /veh TMEM200A (11744735_a_at) / RFU CCDC152 (11751479_a_at) / Fold change /veh CCDC152 (11751479_a_at) / RFU FAM211A (11726209_a_at) / Fold change /veh FAM211A (11726209_a_at) / RFU RGS16 (11746705_a_at) / Fold change /veh RGS16 (11746705_a_at) / RFU VCAN (11755009_s_at) / Fold change /veh VCAN (11755009_s_at) / RFU RHOB (11743442_s_at) / Fold change /veh RHOB (11743442_s_at) / RFU RGS16 (11720943_a_at) / Fold change /veh RGS16 (11720943_a_at) / RFU RGS16 (11720944_at) / Fold change /veh RGS16 (11720944_at) / RFU, VPS4B / Fold change vs veh, VPS4B / RFU, CREB1 / Fold change vs veh, CREB1 / RFU, DNAJC13 / Fold change vs veh, DNAJC13 / RFU, GNAQ / Fold change vs veh, GNAQ / RFU, CDK5R1 / Fold change vs veh, CDK5R1 / RFU, ZRANB3 / Fold change vs veh, ZRANB3 / RFU, CUL4A / Fold change vs veh, CUL4A / RFU, CCNY / Fold change vs veh, CCNY / RFU, UFL1 / Fold change vs veh, UFL1 / RFU, COG3 / Fold change vs veh, COG3 / RFU, DIAPH2 / Fold change vs veh, DIAPH2 / RFU, SKA2 / Fold change vs veh, SKA2 / RFU, AFF3 / Fold change vs veh, AFF3 / RFU, LMF1 / Fold change vs veh, LMF1 / RFU, IPO11 / Fold change vs veh, IPO11 / RFU, DFFB / Fold change vs veh, DFFB / RFU, FOXP1 / Fold change vs veh, FOXP1 / RFU, CARD8 / Fold change vs veh, CARD8 / RFU, STRN3 / Fold change vs veh, STRN3 / RFU, ADK / Fold change vs veh, ADK / RFU, RASSF2 / Fold change vs veh, RASSF2 / RFU, WIPF1 / Fold change vs veh, WIPF1 / RFU, LARP1B / Fold change vs veh, LARP1B / RFU, RASA1 / Fold change vs veh, RASA1 / RFU, RB1 / Fold change vs veh, RB1 / RFU, PPFIA1 / Fold change vs veh, PPFIA1 / RFU, MAT2A / Fold change vs veh, MAT2A / RFU, CCT5 / Fold change vs veh, CCT5 / RFU, WDR92 / Fold change vs veh, WDR92 / RFU, CUX1 / Fold change vs veh, CUX1 / RFU, TTC7A / Fold change vs veh, TTC7A / RFU, TMEM135 / Fold change vs veh, TMEM135 / RFU, DEPTOR / Fold change vs veh, DEPTOR / RFU, CPM / Fold change vs veh, CPM / RFU, DNAJB6 / Fold change vs veh, DNAJB6 / RFU, CACNA2D3 / Fold change vs veh, CACNA2D3 / RFU, DTX4 / Fold change vs veh, DTX4 / RFU, TFCP2 / Fold change vs veh, TFCP2 / RFU, GMCL1 /// GMCL1P1 / Fold change vs veh, GMCL1 /// GMCL1P1 / RFU, AEBP2 / Fold change vs veh, AEBP2 / RFU, SNHG1 /// SNORD22 /// SNORD25 /// SNORD26 /// SNORD27 /// SNORD28 /// SNORD29 /// SNORD31 / Fold change vs veh, SNHG1 /// SNORD22 /// SNORD25 /// SNORD26 /// SNORD27 /// SNORD28 /// SNORD29 /// SNORD31 / Fold change (Aza/veh), C12orf56 (ProbeSet 11735607_a_at) / Fold change (ACY-1035/veh), C12orf56 (ProbeSet 11735607_a_at) / Fold change (Aza/veh), FGFR1OP (ProbeSet 11751329_s_at) / Fold change (ACY-1035/veh), FGFR1OP (ProbeSet 11751329_s_at) / Fold change (Aza/veh), VPS36 (ProbeSet 11739960_a_at) / Fold change (ACY-1035/veh), VPS36 (ProbeSet 11739960_a_at) / RFU SYPL1 (11715823_x_at) / Fold change /veh SYPL1 (11715823_x_at) / RFU IGFBP7 (11715501_s_at) / Fold change /veh IGFBP7 (11715501_s_at) / RFU REEP3 (11722064_at) / Fold change /veh REEP3 (11722064_at) / RFU IGLL1 (11728026_x_at) / Fold change /veh IGLL1 (11728026_x_at): dose or concentration left out as unconfirmed
# Conditions: ProbeSet 11741070_a_at; LIST B
smiles,measurement,value
Nc1ccc(-c2cccs2)cc1NC(=O)c1ccc2c(c1)cc(C1CC1)n2CCN1CCOCC1 [ACY-1035],"Fold change vs veh, ZNF146",0.99
